Here are results for 44 compounds from BindingDB's records for doi:10.1007/s10822-022-00478-x (Roche Innovation Center Basel, F. Hoffmann-La Roche Ltd., 2022).

The assay addresses cAMP and cAMP-inhibited cGMP 3',5'-cyclic phosphodiesterase 10A (Homo sapiens, UniProt Q9Y233). Nature of the assay: PDE10A assay. The essentials: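 Scintillation proximity readout of [3H]cGMP hydrolysis (50 nM final substrate, 15 min) by 2 ng/well human PDE10A after 15 min compound preincubation at RT, pH 7.5 with MgCl2. Four-parameter logistic fit gave IC50, reported as pIC50.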

Usually IC50 stands for the concentration needed to halve the response being measured. A higher IC50 goes with lower potency. `Cn1nc(N2CCCC2)nc1/C=C/c1nc(N2CCCC2)n(C)n1` [Roche-Dataset for PDE10A, Compound 429] displayed an IC50 of 429 nM.
With `CN(C)C(=O)c1c(F)cccc1NC(=O)c1nc(C2CC2)cnc1Nc1cncnc1` [US8703768, 308] the figure was 0.92 nM.
As to `Cn1ncc(C(=O)N2CCC2)c1C(=O)Nc1ccc2nc(N3CCCC3)nn2c1` [Roche-Dataset for PDE10A, Compound 469], the IC50 came out at 0.48 nM.
The figure for `Cn1cc(-c2ccccc2)nc1CCNC(=O)c1cccn2cnnc12` [Roche-Dataset for PDE10A, Compound 182] is 392 nM; for `Cc1cccc(-c2cc(NC(=O)c3c(C(=O)N4CCC4)cnn3C)n[nH]2)n1` [Roche-Dataset for PDE10A, Compound 548] it is 9.76 nM.
With `Cn1ncc2c1C(=O)N(c1ccn3nc(-c4cccc(F)c4)nc3c1)C2=O` [Roche-Dataset for PDE10A, Compound 217] the figure was 51 nM.
Take `CN(C)c1nc2cc(NC(=O)c3c(C(=O)N4CCOCC4)cnn3C)ccn2n1` [Roche-Dataset for PDE10A, Compound 568]: the 50% inhibitory concentration (IC50) worked out at 39 nM.
With `Cc1ncc(C)n2nc(/C=C/c3nc(N4CCCC4)cn3C)nc12` [Roche-Dataset for PDE10A, Compound 596] the figure was 326 nM.
The figure for `O=C(NCC1(c2ccccc2)CCOCC1)c1nc(C2CC2)cnc1Nc1cncnc1` [Roche-Dataset for PDE10A, Compound 924] is 1160 nM; for `CNC(=O)c1c(NC(=O)c2nc(C3CC3)ccc2Nc2cncnc2)cnn1CCOC` [US8703768, 11] it is 0.83 nM.
With `O=C1CCc2c(NC(=O)c3nc(C4CC4)cnc3Nc3cncnc3)cccc21` [Roche-Dataset for PDE10A, Compound 932] the figure was 124 nM; with `Cn1ncc(C(=O)N2CCC2)c1C(=O)N[C@@H]1CCn2cc(-c3ccccc3OC(F)(F)F)nc2C1` [Roche-Dataset for PDE10A, Compound 253], 44 nM; with `O=C(Nc1cccc(N2CCCC2=O)c1)c1nc(C2CC2)cnc1Nc1cncnc1` [Roche-Dataset for PDE10A, Compound 878], 15 nM.
The compound `CN(c1cncnc1)c1ccc(C2CC2)nc1C(=O)Nc1cc(-c2ccccn2)nn1C` [Roche-Dataset for PDE10A, Compound 360] returned a half-maximal inhibitory concentration (IC50) of 5600 nM.
`Cn1ncc(C(=O)N2CCCC2)c1C(=O)Nc1ccn2nc(N3CCOCC3)nc2c1` [Roche-Dataset for PDE10A, Compound 402] gave an IC50 of 3.25 nM.
The figure for `Cn1ncc(C(=O)N2CCOCC2)c1C(=O)N[C@H]1CCn2cc(-c3ccc(F)cc3)nc2C1` [Roche-Dataset for PDE10A, Compound 938] is 624 nM.
With `O=C(Nc1cnoc1-c1ccccc1)c1nc(C2CC2)ccc1Nc1cncnc1` [Roche-Dataset for PDE10A, Compound 607] the figure was 1.93 nM; with `O=C1c2ccccc2C(=O)N1CCc1nc(-c2ccncc2)no1` [Roche-Dataset for PDE10A, Compound 570], 11900 nM; with `Cc1nc2ccccc2nc1OCc1nc(-c2ccc(Cl)cc2)cn1C` [Roche-Dataset for PDE10A, Compound 810], 179 nM.
The figure for `O=C(Nc1cccc(C(=O)N2CCOCC2)n1)c1nc(C2CC2)cnc1Nc1cncnc1` [Roche-Dataset for PDE10A, Compound 920] is 7.49 nM; for `CC(C)(C)CC(C)(C)NC(=O)c1nc(C2CC2)cnc1Nc1cncnc1` [Roche-Dataset for PDE10A, Compound 976] it is 826 nM; for `Cc1c(Cl)nn2c(C)c(/C=C/c3nc(N4CCCC4)nn3C)nc2c1C` [Roche-Dataset for PDE10A, Compound 309] it is 48 nM.
Compound `COC[C@H]1CCCN1c1nc(/C=C/c2nc3c(C)ncc(C)n3n2)n(C)n1` [Roche-Dataset for PDE10A, Compound 388] registered a 50% inhibitory concentration (IC50) of 5.53 nM.
With `COc1c(C)cnc(/C=C/c2nc(-c3ccccc3)cn2C)c1C` [Roche-Dataset for PDE10A, Compound 245], the IC50 stood at 987 nM.
The figure for `CN(C)c1nc2cc(NC(=O)c3c(C(=O)N4CCC4)cnn3C)ccn2n1` [Roche-Dataset for PDE10A, Compound 520] is 2.77 nM; for `Cc1c(Br)cc(C(F)(F)F)c2nc(CCc3nc(N4CCCC4)nn3C)nn12` [Roche-Dataset for PDE10A, Compound 135] it is 0.43 nM.
With `Cn1cc(Br)c(C(=O)Nc2cc(-c3ccccn3)nn2C)n1` [Roche-Dataset for PDE10A, Compound 934] the figure was 811 nM; with `Cn1ncc(C(=O)N2CCC2)c1C(=O)Nc1ccn(Cc2ccncc2)n1` [Roche-Dataset for PDE10A, Compound 978], 192 nM.
The figure for `Cn1cc(-c2ccccc2)nc1COc1nc2ccccc2nc1C(F)(F)F` [Roche-Dataset for PDE10A, Compound 644] is 26 nM; for `Cn1ncc(C(=O)N2CCC2)c1C(=O)Nc1ccn(CCN2CCOCC2)n1` [Roche-Dataset for PDE10A, Compound 1030] it is 368 nM.
`Cc1cc(C#Cc2nc(N3CCCC3)nn2C)nn2c(C)c(C(F)(F)F)nc12` [US9617271, 54] showed a half-inhibitory concentration (IC50) of 0.64 nM.
`Cc1ncc(C)n2nc(CCc3nc(N4CCNCC4)nn3C)nc12` [Roche-Dataset for PDE10A, Compound 515] gave an IC50 of 767 nM.
The figure for `O=C(NCC1CC1)c1cccc(NC(=O)c2nc(C3CC3)cnc2Nc2cncnc2)n1` [Roche-Dataset for PDE10A, Compound 880] is 9.65 nM.
The figure for `Cc1nc(-c2ccccc2Cl)n2c3ccc(Cl)cc3c(=O)n(C)c12` [Roche-Dataset for PDE10A, Compound 967] is 15 nM.
As for `CCn1nccc1NC(=O)c1ccc2cc(-c3ccccc3)nn2c1` [Roche-Dataset for PDE10A, Compound 654], 575 nM corresponded to half-maximal inhibition (IC50).
With `COc1ccc(Cn2nc(CCc3nc4c(Cl)cc(Cl)c(C)n4n3)nc2N2CCCC2)cc1` [Roche-Dataset for PDE10A, Compound 37] the figure was 2.58 nM; with `Cn1ncc(C(=O)O)c1C(=O)Nc1ccc2cc(-c3ccccc3)nn2c1` [Roche-Dataset for PDE10A, Compound 377], 19 nM; with `CN(C)c1nc(OCc2nc3ccccc3n2C)nc2ccc(Cl)cc12` [Roche-Dataset for PDE10A, Compound 470], 119 nM.
The figure for `COc1nc(OCc2nc(-c3ccccc3)cn2C)nc2ccc(Cl)cc12` [Roche-Dataset for PDE10A, Compound 198] is 15 nM; for `Cc1ncc(C)n2nc(CCc3nc(Br)nn3C)nc12` [Roche-Dataset for PDE10A, Compound 1131] it is 2480 nM; for `O=C(Nc1ccn2nc(-c3ccccc3)nc2c1)c1cc(Cl)nc(N2CCCC2)c1` [Roche-Dataset for PDE10A, Compound 132] it is 48 nM.
With `Cn1cc(-c2ccccc2)nc1COc1ncc(C2CC2)nc1C(=O)NCC1CC1` [Roche-Dataset for PDE10A, Compound 191] the figure was 221 nM; with `O=C(NCCCc1noc(-c2ccccc2)n1)c1nc(C2CC2)cnc1Nc1cncnc1` [Roche-Dataset for PDE10A, Compound 181], 495 nM.
Turning to `COCCN(C)C(=O)c1cnn(C)c1C(=O)N[C@@H]1CCn2cc(-c3ccccc3)nc2C1` [Roche-Dataset for PDE10A, Compound 112], the IC50 stood at 34 nM.
